Measured values as given in patent publication US20030017976A1, “Therapeutic properties of liposome-encapsulated immunomodulators” (priority 1998, published 2003).

Columns and labels:
human monocytes = test: Northern blot of cytokine mRNA in monocytes; type: cell-based; details: LPS 100 ng/ml, MLV-JBT3002 500 nmol/ml, JBT3002 1 ng/ml; 1-3 h
Experimental: Total RNA was extracted using Tri reagent™ kit according to the manufacturer's instructions (Molecular Research Center, Inc., Cincinnati, Ohio). […] Cytokine and GAPDH and mRNA were detected using cDNA probes of Human TNF-α, IL-1β, IL-6 and rat glyceraldehyde-3-phosphate dehydrogenase (GAPDH) labeled by nick translation with α-^32P-CTP. Hybridizations were performed as described (Dong, Z. et al. J Natl. Cancer Inst. (1994) 86:913).

IL-15 = test: RT-PCR of IL-15 in PEM and IEC6 cells; type: cell-based
Source text: To determine whether macrophages or epithelial cells respond to JBT 3002 by upregulating IL-1 5, the RT-PCR technique was used and the results are shown in FIG. 23.

## N-hexadecanol-S-[2(R)-3-diodecanoyloxypropyl]-L-cysteinyl-L-alanyl-D-isoglutaminyl-glycyl-taurine sodium salt [JBT3002]
Human monocytes
  mRNA for TNF-α, IL-1β, and IL-6: High levels of mRNA for TNF-α, IL-1β, and IL-6
IL-15
  IL-15 expression in response to JBT 3002 (RT-PCR): Peritoneal exudate macrophages (PEM), but not intestinal cells (IEC6), upregulate IL-15 expression
